According to ChEMBL document CHEMBL1201862, “PubChem BioAssay data set” (2004):
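Grown in 96-well plates, cells were treated for 48 hours with each compound at five concentrations. Insufficient inhibition: endpoint recorded as highest concentration tested. GI50: concentration for 50% inhibition of growth.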 Active and inactive are the calls of the source. No stated cut-off is given here; in the data, active = GI50 up to about 1.1 µM and inactive = higher.

Experiments:
Test in all cases: DTP human tumour cell line panel, 48 h
SNB-78 = system: SNB-78
DMS-114 = system: DMS-114
DMS-273 = system: DMS-273
RXF 631 = system: RXF 631

SMILES | GI50 (SNB-78) | GI50 (DMS-114) | GI50 (DMS-273) | GI50 (RXF 631)
C1=C(c2ccccc2)SC(N2CCCCC2)S1 (stereo not drawn) | > 100 µM (inactive) | 60.1 µM (inactive) | > 100 µM (inactive) | –
Cc1ccc(S(=O)(=O)Oc2cc(-c3ccccc3)nc3ccccc23)cc1 | 7.08 µM (inactive) | 0.333 µM (active) | 1.04 µM (active) | –
O=c1cc(-c2ccc(Cl)cc2)oc2cc(OCCCOc3ccc4c(=O)cc(-c5ccc(Cl)cc5)oc4c3)ccc12 | > 100 µM (inactive) | > 100 µM (inactive) | > 100 µM (inactive) | > 100 µM (inactive)
CC(=O)c1sc(Nc2nnc(-c3ccc(-c4nnc(Nc5nc(C)c(C(C)=O)s5)o4)cc3)o2)nc1C | > 100 µM (inactive) | > 100 µM (inactive) | > 100 µM (inactive) | –
O=C(CC1(O)C(=O)Nc2ccc(Br)cc21)c1cccc([N+](=O)[O-])c1 (stereo not drawn) | 37.8 µM (inactive) | – | 45.8 µM (inactive) | > 100 µM (inactive)
O=C1NC2CCC(C2)C1c1ccccc1 (stereo not drawn) | > 100 µM (inactive) | > 100 µM (inactive) | > 100 µM (inactive) | > 100 µM (inactive)
CC1=C(O)C(=O)c2cn(C)cc2C1=O | > 100 µM (inactive) | > 100 µM (inactive) | > 100 µM (inactive) | –
O=S1(=O)C(=C(c2ccccc2)c2ccccc2)S(=O)(=O)c2ccccc21 | 39.8 µM (inactive) | 65.3 µM (inactive) | > 100 µM (inactive) | –
COc1ccc2c(c1)CCc1c(CO)c(COC(=O)NC(C)C)n(C)c1-2 | 4.38 µM (inactive) | 2.59 µM (inactive) | 5.48 µM (inactive) | 13 µM (inactive)
O=c1ccc(=O)c2c(=O)c3ccccc3c(=O)c1=2 | 60.5 µM (inactive) | 29 µM (inactive) | 46.7 µM (inactive) | –
CCC12CCC(O)C1N(C)CCC2Sc1ccccc1 (stereo not drawn) | > 100 µM (inactive) | 82.4 µM (inactive) | > 100 µM (inactive) | > 100 µM (inactive)
O=C(O)C1c2ccccc2C(C(=O)O)c2ccccc21 (stereo not drawn) | > 100 µM (inactive) | > 100 µM (inactive) | > 100 µM (inactive) | –
COc1ccc(/C(Cl)=C(\C=O)c2ccc(Cl)cc2)cc1 | 6.85 µM (inactive) | 4.15 µM (inactive) | 4.34 µM (inactive) | 3.64 µM (inactive)
O=C(c1cc2ccccc2[nH]1)C(O)(c1cc2ccccc2[nH]1)c1cc2ccccc2[nH]1 | – | > 246 µM (inactive) | > 246 µM (inactive) | > 246 µM (inactive)
CNc1ccc2ncccc2c1[N+](=O)[O-] | > 100 µM (inactive) | > 100 µM (inactive) | > 100 µM (inactive) | > 100 µM (inactive)
Nc1ccn(CC(CO)CC(c2ccccc2)P(=O)(O)O)c(=O)n1 (stereo not drawn) | > 100 µM (inactive) | > 100 µM (inactive) | > 100 µM (inactive) | –
Cc1cn([C@@H]2C[C@H](CO)[C@@H](O)C2)c(=O)[nH]c1=O | > 100 µM (inactive) | > 100 µM (inactive) | > 100 µM (inactive) | > 100 µM (inactive)
